Where “and” joins values, the source holds several entries; their conditions need not be identical. Equal entries are not always repeated. Toxic doses and inconclusive results are not listed. Cut-off read from the data, not from the text of the source: active = T/C of 150% or more; inactive = T/C below 125%.
System: L1210 leukemia ip in BDF1 mice, survival T/C
Test: NCI In Vivo Anticancer Drug Screen. Data for tumor model L1210 Leukemia (intraperitoneal) in B6D2F1 (BDF1) mice
Conditions: endpoint: mean survival time, higher = longer survival
Summary of the method: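 In this screen, tumor-bearing mice given compound are compared to those given vehicle, and their survival values are reported as a treated-to-control quotient.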

[1] = dose: 100.0 mg/kg/injection, schedule: Q04DX002 (ip), vehicle: saline with Tween-80
[2] = dose: 100.0 mg/kg/injection, schedule: Q04DX003 (ip), vehicle: saline with Tween-80
[3] = dose: 200.0 mg/kg/injection, schedule: Q04DX002 (ip), vehicle: saline with Tween-80
[4] = dose: 200.0 mg/kg/injection, schedule: Q04DX003 (ip), vehicle: saline with Tween-80
[5] = dose: 400.0 mg/kg/injection, schedule: Q04DX002 (ip), vehicle: saline with Tween-80
[6] = dose: 400.0 mg/kg/injection, schedule: Q04DX003 (ip), vehicle: saline with Tween-80
[7] = dose: 100.0 mg/kg/injection, schedule: Q04DX003 (ip), vehicle: Klucel (hydroxypropylcellulose) (HPC)
[8] = dose: 200.0 mg/kg/injection, schedule: Q04DX003 (ip), vehicle: Klucel (hydroxypropylcellulose) (HPC)
[9] = dose: 400.0 mg/kg/injection, schedule: Q04DX003 (ip), vehicle: Klucel (hydroxypropylcellulose) (HPC)
[10] = dose: 5.0 mg/kg/injection, schedule: Q01DX001 (ip), vehicle: saline
[11] = dose: 10.0 mg/kg/injection, schedule: Q01DX001 (ip), vehicle: saline
[12] = dose: 20.0 mg/kg/injection, schedule: Q01DX001 (ip), vehicle: saline
[13] = dose: 100.0 mg/kg/injection, schedule: Q01DX009 (ip), vehicle: Klucel (hydroxypropylcellulose) (HPC)
[14] = dose: 200.0 mg/kg/injection, schedule: Q01DX009 (ip), vehicle: Klucel (hydroxypropylcellulose) (HPC)
[15] = dose: 400.0 mg/kg/injection, schedule: Q01DX009 (ip), vehicle: Klucel (hydroxypropylcellulose) (HPC)
[16] = dose: 50.0 mg/kg/injection, schedule: Q01DX001 (ip), vehicle: saline
[17] = dose: 100.0 mg/kg/injection, schedule: Q01DX001 (ip), vehicle: saline
[18] = dose: 200.0 mg/kg/injection, schedule: Q01DX001 (ip), vehicle: saline
[19] = dose: 400.0 mg/kg/injection, schedule: Q01DX001 (ip), vehicle: saline

Measured: T/C

O=CC(O)C(O)C(OC1OC(CO)C(O)C(O)C1O)C(O)CO (centres undefined) (tested in a mixture with another compound)
inactive: dose: 75.0 mg/kg/injection, schedule: Q01DX009 (ip), vehicle: carboxymethylcellulose (CMC) 105 % of control | dose: 100.0 mg/kg/injection, schedule: Q01DX001 (ip), vehicle: saline with Tween-80 94 % of control and 98 % of control | dose: 100.0 mg/kg/injection, schedule: Q01DX009 (ip), vehicle: carboxymethylcellulose (CMC) 98 % of control | dose: 100.0 mg/kg/injection, schedule: Q01DX009 (ip), vehicle: saline with Tween-80 94 % of control | [1] 108 % of control [middle of 4 runs] | [2] 97 % of control and 108 % of control | dose: 150.0 mg/kg/injection, schedule: Q01DX009 (ip), vehicle: carboxymethylcellulose (CMC) 105 % of control | dose: 200.0 mg/kg/injection, schedule: Q01DX001 (ip), vehicle: saline with Tween-80 98 % of control and 105 % of control | dose: 200.0 mg/kg/injection, schedule: Q01DX009 (ip), vehicle: carboxymethylcellulose (CMC) 105 % of control | dose: 200.0 mg/kg/injection, schedule: Q01DX009 (ip), vehicle: saline with Tween-80 100 % of control | [3] 97 % of control [middle of 4 runs] | [4] 91 % of control and 92 % of control | dose: 300.0 mg/kg/injection, schedule: Q01DX009 (ip), vehicle: carboxymethylcellulose (CMC) 100 % of control | dose: 400.0 mg/kg/injection, schedule: Q01DX001 (ip), vehicle: saline with Tween-80 93 % of control and 92 % of control | dose: 400.0 mg/kg/injection, schedule: Q01DX009 (ip), vehicle: carboxymethylcellulose (CMC) 96 % of control | [5] 96 % of control and 92 % of control and 94 % of control | [6] 101 % of control and 92 % of control

C=C1C2CCC(C2)C1(C)CC/C=C(/C)CO (centres undefined) (tested in a mixture with another compound)
inactive: [7] 96 % of control | [8] 96 % of control | [9] 93 % of control

c1ccc([P+](CCCCCCCCCC[P+](c2ccccc2)(c2ccccc2)c2ccccc2)(c2ccccc2)c2ccccc2)cc1
inactive: [10] 105 % of control | [11] 102 % of control | [12] 110 % of control

O=C(N=C1C=CC(=NC(=O)OCc2ccccc2)C=C1)OCc1ccccc1
inactive: [13] 98 % of control | [7] 92 % of control | [14] 100 % of control | [8] 88 % of control | [15] 100 % of control | [9] 90 % of control

O=C(O)COc1cc(Cl)c(Cl)cc1Cl
inactive: dose: 50.0 mg/kg/injection, schedule: Q01DX001 (ip), vehicle: carboxymethylcellulose (CMC) 102 % of control | dose: 100.0 mg/kg/injection, schedule: Q01DX001 (ip), vehicle: carboxymethylcellulose (CMC) 106 % of control | [2] 100 % of control | dose: 200.0 mg/kg/injection, schedule: Q01DX001 (ip), vehicle: carboxymethylcellulose (CMC) 112 % of control | [4] 103 % of control | dose: 400.0 mg/kg/injection, schedule: Q01DX001 (ip), vehicle: carboxymethylcellulose (CMC) 108 % of control | [6] 100 % of control

CCOC(=O)c1[nH]nc(CC)c1O
inactive: dose: 50.0 mg/kg/injection, schedule: Q04DX003 (ip), vehicle: gum acacia 110 % of control | dose: 100.0 mg/kg/injection, schedule: Q01DX009 (ip), vehicle: gum acacia 96 % of control | dose: 100.0 mg/kg/injection, schedule: Q04DX003 (ip), vehicle: gum acacia 98 % of control | dose: 200.0 mg/kg/injection, schedule: Q01DX009 (ip), vehicle: gum acacia 92 % of control | dose: 200.0 mg/kg/injection, schedule: Q04DX003 (ip), vehicle: gum acacia 103 % of control | dose: 400.0 mg/kg/injection, schedule: Q01DX009 (ip), vehicle: gum acacia 105 % of control | dose: 400.0 mg/kg/injection, schedule: Q04DX003 (ip), vehicle: gum acacia 108 % of control

S=P(c1cccs1)(c1cccs1)c1cccs1
inactive: [2] 93 % of control | [4] 96 % of control | [6] 86 % of control

N#CC(Cl)(Cl)C(N)=O
inactive: dose: 12.5 mg/kg/injection, schedule: Q04DX002 (ip), vehicle: saline 88 % of control

CC1CCC(C)(C)CC1(C)c1cc(CN(C)C)c(O)c(CN(C)C)c1 (centres undefined)
inactive: dose: 12.5 mg/kg/injection, schedule: Q04DX003 (ip), vehicle: acetone 93 % of control | dose: 25.0 mg/kg/injection, schedule: Q04DX003 (ip), vehicle: acetone 98 % of control | dose: 50.0 mg/kg/injection, schedule: Q04DX003 (ip), vehicle: acetone 90 % of control

O=C(N/N=C/c1cccnc1)c1ccc(O)cc1
inactive: [13] 91 % of control | [14] 96 % of control | [15] 94 % of control

CC(=O)/C(N=Nc1ccc(S(=O)(=O)c2ccc(N=N/C(C(C)=O)=C(/C)O)cc2)cc1)=C(\C)O
inactive: [2] 100 % of control | [4] 93 % of control | [6] 96 % of control

COc1cc(O)c2ncccc2c1O
inactive: [10] 95 % of control | [11] 101 % of control | [12] 106 % of control | dose: 35.0 mg/kg/injection, schedule: Q01DX001 (ip), vehicle: saline 86 % of control and 91 % of control | dose: 40.0 mg/kg/injection, schedule: Q01DX001 (ip), vehicle: saline 103 % of control | [16] 93 % of control and 89 % of control

CCCCCCCCN/N=C(/C)CCCCCO
inactive: [17] 98 % of control | [18] 103 % of control | [19] 103 % of control

CN1CCCCCC(=N\O)/C(=N/O)CCCCC1
inactive: [16] 101 % of control | [17] 103 % of control | [18] 100 % of control

CSc1ncc(CO)c(Nc2ccc(F)cc2)n1
inactive: dose: 100.0 mg/kg/injection, schedule: Q04DX003 (ip), vehicle: saline 93 % of control | dose: 200.0 mg/kg/injection, schedule: Q04DX003 (ip), vehicle: saline 100 % of control | dose: 400.0 mg/kg/injection, schedule: Q04DX003 (ip), vehicle: saline 98 % of control

COc1ccc(C2NC(=O)NC2=O)cc1 (centres undefined)
inactive: [16] 105 % of control | [17] 105 % of control | [2] 108 % of control | [18] 102 % of control | [4] 103 % of control | [19] 111 % of control | [6] 92 % of control

CSc1ccc(OC(=O)Nc2cc([N+](=O)[O-])ccc2F)cc1C
inactive: [1] 89 % of control | dose: 100.0 mg/kg/injection, schedule: Q04DX002 (ip), vehicle: saline 92 % of control | [3] 93 % of control | dose: 200.0 mg/kg/injection, schedule: Q04DX002 (ip), vehicle: saline 110 % of control | [5] 91 % of control | dose: 800.0 mg/kg/injection, schedule: Q04DX002 (ip), vehicle: saline with Tween-80 93 % of control

CCC[CH2][Sn](=[O])[OH]
inactive: [1] 91 % of control | [3] 91 % of control | [5] 94 % of control

CC(=O)c1cccc(NC(=O)c2cccc(F)c2)c1
inactive: [13] 95 % of control | [14] 97 % of control | [15] 95 % of control

CCOc1ccc(-n2c(=O)c(N=Nc3ccc(Br)cc3)c(O)n(-c3ccc(C)cc3)c2=S)cc1
inactive: dose: 50.0 mg/kg/injection, schedule: Q01DX001 (ip), vehicle: Klucel (hydroxypropylcellulose) (HPC) 95 % of control | dose: 100.0 mg/kg/injection, schedule: Q01DX001 (ip), vehicle: Klucel (hydroxypropylcellulose) (HPC) 101 % of control | dose: 200.0 mg/kg/injection, schedule: Q01DX001 (ip), vehicle: Klucel (hydroxypropylcellulose) (HPC) 101 % of control

NC(=S)N/N=C/c1ccc(Br)cn1
inactive: dose: 6.25 mg/kg/injection, schedule: Q01DX009 (ip), vehicle: saline with Tween-80 117 % of control | dose: 12.5 mg/kg/injection, schedule: Q01DX009 (ip), vehicle: saline with Tween-80 113 % of control

O=C(C[n+]1ccc(/C=N\O)cc1)c1ccc(-c2ccc(C(=O)C[n+]3ccc(/C=N/O)cc3)cc2)cc1
inactive: dose: 100.0 mg/kg/injection, schedule: Q04DX002 (ip), vehicle: Klucel (hydroxypropylcellulose) (HPC) 103 % of control | dose: 200.0 mg/kg/injection, schedule: Q04DX002 (ip), vehicle: Klucel (hydroxypropylcellulose) (HPC) 100 % of control | dose: 400.0 mg/kg/injection, schedule: Q04DX002 (ip), vehicle: Klucel (hydroxypropylcellulose) (HPC) 92 % of control

CCCCCC(C)NCC(C)(C)O (centres undefined)
inactive: dose: 75.0 mg/kg/injection, schedule: Q01DX001 (ip), vehicle: acid diluted with saline 102 % of control
